Columns and labels:
Tyk2 = Tyk2 (Homo sapiens, UniProt P29597); experiment: JAK kinase inhibition assay (EZ Reader, peptide substrate phosphorylation) - Tyk2; type: biochemical; settings: Tyk2 kinase 1 nM; 8 concentration points, max 10 μM
Source text: (§1) Assay for Identifying Inhibitory Effects of Compounds on JAK Kinases
(§2) Janus kinases (JAK), including JAK1, JAK2, JAK3 and Tyk2, transduce a cytokine-mediated signal through a JAK-STAT pathway. The kinases are 120-140 kDa in size and have 7 determined homology regions: JH1 to JH7. JH1 is an important region for enzymatic activity and has typical characteristics of tyrosine kinases. Phosphorylation of tyrosine leads to a change in the conformation of JAK protein, thereby promoting binding of substrate. The JAK-STAT system includes three main parts: receptors penetrating a cell membrane, Janus kinases binding to the receptors, and signal transducers and activators of transcription (STAT) for transmitting signals to a nucleus and DNA. When cytokines bind to receptors, JAK phosphorylates the receptors and attracts STAT proteins. The STAT proteins are also phosphorylated and combined with one another to form dimers. The dimers enter the nucleus and bind to DNA, thereby leading to gene transcription.
(§3) EZ Reader from PerkinElmer can be used to detect the phosphorylation of polypeptide substrates catalyzed by kinases. The device is based on microfluidic techniques, and can directly detect fluorescently labeled substrates and products. The separation step is achieved by controlling the pressure and electric field strength in the microfluidic chip. In kinase assays, a product conversion ratio is usually controlled to be 20-30%. A biological test is used to identify inhibitory effects of compounds on JAKs.
(§4) Compound powder was dissolved in DMSO, sealed and stored in a freezer under −20° C. The in-house compound Ref1 was used as a positive control for JAK1, JAK2 and Tyk2 tests, and Ref2 was used as a positive control for JAK3 tests.
(§5) S2.8. Assay buffer: 20 mM HEPES buffer, pH 7.4, 10 mM magnesium chloride, 0.01% bovine serum albumin BSA, 0.0005% Tween-20 and 1 mM dithiothreitol solution.
(§6) S2.9. Stop buffer: 180 mM HEPES buffer, 20 mM ethylenediaminetetraacetic acid and 0.2% coating reagent 3.
(§7) S2.10. Separation buffer: 100 mM HEPES buffer, 10 mM ethylenediaminetetraacetic acid, 0.0005% Tween 20, 0.1% coating reagent 3 and 1% dimethyl sulfoxide.
(§8) The compound was dissolved in dimethyl sulfoxide and diluted to 10 mM concentration, a certain volume of solution was taken and diluted to 0.6 mM concentration, 10 μL of the 0.6 mM dilution was added to a 384-well microplate, and then was diluted 3-fold with a total of 8 concentration points.
(§9) Positive control (HPE1): Ref1, final concentration: 10 μM […]
(§10) Negative control (ZPE): DMSO, final content: 1.6%
(§11) Compounds: maximum final concentration: 10 μM; 3-fold dilution, 8 concentration points and 2 duplicates.
(§12) S4.1. 250 nL of the compound was added to each well of the assay microplate by using ECHO, and centrifuged at 1000 rpm for 1 minute.
(§13) S4.2. 5 μL of the assay buffer was added and agitated for a few seconds to fully dissolve the compound.
(§14) S4.3. 5 μL of 3× substrate solution and 5 μL of 3× kinase solution were added and centrifuged at 800 rpm for 1 minute.
(§15) S4.4. Final concentrations of JAK1, JAK2, JAK3 and Tyk2 kinases in the reaction system were 20 nM, 1 nM, 1 nM and 1 nM respectively.
(§16) S4.5. Incubation at room temperature, where kinases had time differences, and different batches of kinases had time differences.
(§17) S4.6. When 20%-30% of the reaction completed, 15 μL of stop buffer was added to stop the reaction, and centrifuged at 1000 rpm for 2 minutes.
(§18) S4.7. The microplates were placed on EZ Reader for reading.
(§19) S4.8. Readings on EZ Reader were calculated by using a peak height, where product conversion ratio (%)=product/(product+substrate)*100.
(§20) 5. Data Processing: IC50 calculation
(§21) A graphing software Xlfit was used to form a concentration curve of the test compound, and an IC50 value was calculated.
(§22) “A” means “≥10 μM”; “B” means “≥1 μM and <10 μM”; “C” means “≥0.1 μM and <1 μM”; and “D” means “<0.1 μM”.

JAK1 = JAK1 (Homo sapiens, UniProt P23458); experiment: JAK kinase inhibition assay (EZ Reader, peptide substrate phosphorylation) - JAK1; type: biochemical; settings: JAK1 kinase 20 nM; 8 concentration points, max 10 μM
Sequence of JAK1 (P23458 whole entry): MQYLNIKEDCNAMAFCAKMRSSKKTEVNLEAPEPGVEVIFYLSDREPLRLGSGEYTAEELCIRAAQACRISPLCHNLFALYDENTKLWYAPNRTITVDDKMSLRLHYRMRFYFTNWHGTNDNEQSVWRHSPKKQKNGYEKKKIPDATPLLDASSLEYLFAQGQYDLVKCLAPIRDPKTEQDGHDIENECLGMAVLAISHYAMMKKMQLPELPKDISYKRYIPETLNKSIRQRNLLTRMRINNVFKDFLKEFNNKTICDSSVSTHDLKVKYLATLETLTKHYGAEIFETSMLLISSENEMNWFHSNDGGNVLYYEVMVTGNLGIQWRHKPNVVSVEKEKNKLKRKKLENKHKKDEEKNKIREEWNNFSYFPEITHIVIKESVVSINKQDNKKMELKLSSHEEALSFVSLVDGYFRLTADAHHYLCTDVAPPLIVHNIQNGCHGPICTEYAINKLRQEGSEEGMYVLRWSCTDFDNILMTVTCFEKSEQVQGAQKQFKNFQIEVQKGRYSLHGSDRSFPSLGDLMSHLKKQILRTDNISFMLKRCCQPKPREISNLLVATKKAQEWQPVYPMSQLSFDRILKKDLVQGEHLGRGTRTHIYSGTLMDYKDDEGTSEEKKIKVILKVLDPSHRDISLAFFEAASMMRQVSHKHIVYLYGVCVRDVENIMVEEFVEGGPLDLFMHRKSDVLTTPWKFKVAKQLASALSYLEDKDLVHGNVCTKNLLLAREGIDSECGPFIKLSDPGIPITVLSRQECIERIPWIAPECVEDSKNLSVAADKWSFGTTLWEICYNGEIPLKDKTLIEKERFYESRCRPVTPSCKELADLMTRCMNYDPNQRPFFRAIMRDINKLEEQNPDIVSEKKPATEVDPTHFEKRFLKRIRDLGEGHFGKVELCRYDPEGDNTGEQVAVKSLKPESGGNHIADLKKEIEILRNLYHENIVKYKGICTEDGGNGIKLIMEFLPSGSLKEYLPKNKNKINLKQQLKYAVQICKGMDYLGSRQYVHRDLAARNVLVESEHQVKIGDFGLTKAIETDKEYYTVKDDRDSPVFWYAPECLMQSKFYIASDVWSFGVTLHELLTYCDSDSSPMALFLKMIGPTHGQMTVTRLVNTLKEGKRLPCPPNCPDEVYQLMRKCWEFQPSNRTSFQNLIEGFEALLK
Source text: as §1, §2, §3, §4, §5, §6, §7, §8, §9, §10, §11, §12, §13, §14, §15, §16, §17, §18, §19, §20, §21, §22

Sequence of Tyk2 (P29597 whole entry): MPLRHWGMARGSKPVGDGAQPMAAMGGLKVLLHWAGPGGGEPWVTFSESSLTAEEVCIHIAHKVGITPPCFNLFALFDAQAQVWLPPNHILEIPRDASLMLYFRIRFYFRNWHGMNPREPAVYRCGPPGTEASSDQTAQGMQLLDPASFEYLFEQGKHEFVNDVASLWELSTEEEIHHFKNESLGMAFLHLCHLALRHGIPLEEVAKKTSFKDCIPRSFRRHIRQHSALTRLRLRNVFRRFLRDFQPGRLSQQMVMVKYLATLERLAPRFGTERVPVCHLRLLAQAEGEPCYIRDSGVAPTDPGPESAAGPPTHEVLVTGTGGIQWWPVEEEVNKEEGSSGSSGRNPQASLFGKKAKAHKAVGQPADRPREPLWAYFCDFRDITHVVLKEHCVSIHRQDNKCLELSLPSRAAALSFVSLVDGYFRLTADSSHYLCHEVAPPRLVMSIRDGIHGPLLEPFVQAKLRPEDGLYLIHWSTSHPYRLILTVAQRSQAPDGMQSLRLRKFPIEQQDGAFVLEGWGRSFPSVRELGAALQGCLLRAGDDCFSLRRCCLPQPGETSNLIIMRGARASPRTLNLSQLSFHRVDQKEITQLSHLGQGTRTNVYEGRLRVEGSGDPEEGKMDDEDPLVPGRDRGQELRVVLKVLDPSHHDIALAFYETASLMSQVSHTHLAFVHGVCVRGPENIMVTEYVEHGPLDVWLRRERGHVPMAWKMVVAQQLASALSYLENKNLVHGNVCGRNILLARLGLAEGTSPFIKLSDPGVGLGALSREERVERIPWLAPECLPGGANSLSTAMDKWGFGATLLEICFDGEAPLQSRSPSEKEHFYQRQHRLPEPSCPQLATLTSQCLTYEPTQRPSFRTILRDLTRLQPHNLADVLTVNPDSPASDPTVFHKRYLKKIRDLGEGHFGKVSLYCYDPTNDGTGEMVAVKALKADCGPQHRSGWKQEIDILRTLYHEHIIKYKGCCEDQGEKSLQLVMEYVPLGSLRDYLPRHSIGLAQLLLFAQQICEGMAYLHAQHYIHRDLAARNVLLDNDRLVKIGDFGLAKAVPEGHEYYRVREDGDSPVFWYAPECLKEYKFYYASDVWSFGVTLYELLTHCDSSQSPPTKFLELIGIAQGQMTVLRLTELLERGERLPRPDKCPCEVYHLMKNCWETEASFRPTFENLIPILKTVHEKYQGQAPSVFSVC

Row | IC50 (Tyk2) [µM] | IC50 (JAK1) [µM] | SMILES
1 | 1 to 10 | 1 to 10 | CN1CCN(Cc2ccc(-c3ccnc(Nc4cnn(C)c4)n3)cc2)CC1 [TDM-180788, N-(1-methyl-1H-pyrazol-4-yl)-4-(4-((4-methylpiperazine-1-yl)methyl)phenyl)pyrimidin-2-amine]
2 | 1 to 10 | 1 to 10 | Cn1cc(Nc2nccc(-c3cnc(NC(=O)C4CC4)c(F)c3)n2)cn1 [TDM-180891, N-(3-fluoro-5-(2-((1-methyl-1H-pyrazol-4-yl)amino)pyrimidin-4-yl)pyridin-2-yl)cyclopropanecarboxamide]
3 | 0.1 to 1 | < 0.1 | Cn1cc(Nc2nccc(-n3ccc4c(NC(=O)CC(F)(F)F)cccc43)n2)cn1 [TDM-180882, 3,3,3-trifluoro-N-(1-(2-((1-methyl-1H-pyrazol-4-yl)amino)pyrimidin-4-yl)-1H-indol-4-yl)propanamide]
4 | 1 to 10 | 0.1 to 1 | CCOCCS(=O)(=O)Nc1ccc(-c2ccnc(Nc3cnn(C)c3)n2)cn1 [TDM-180877, 2-ethyoxyl-N-(5-(2-((1-methyl-1H-pyrazol-4-yl)amino)pyrimidin-4-yl)pyridin-2-yl)ethanesulfonamide]
5 | 0.1 to 1 | < 0.1 | Cn1cc(Nc2nccc(-c3ccc(NC(=O)[C@H]4CC4(F)F)nc3)n2)cn1 [TDM-180939, (R)-2,2-difluoro-N-(5-(2-((1-methyl-1H-pyrazol-4-yl)amino)pyrimidin-4-yl)pyridin-2-yl)cyclopropane-1-carboxamide]
6 | 1 to 10 | 0.1 to 1 | Cn1cc(Nc2nccc(-c3cnc(NC(=O)CC#N)c(F)c3)n2)cn1 [TDM-180890, 2-cyano-N-(3-fluoro-5-(2-((1-methyl-1H-pyrazol-4-yl)amino)pyrimidin-4-yl)pyridin-2-yl)acetamide]
7 | ≥ 10 | ≥ 10 | Cn1cc(Nc2nccc(-c3cnc(NS(=O)(=O)Cc4ccccc4)c(F)c3)n2)cn1 [TDM-180913, N-(3-fluoro-5-(2-((1-methyl-1H-pyrazol-4-yl)amino)pyrimidin-4-yl)pyridin-2-yl)-1-phenylmethanesulfonamide]
8 | 0.1 to 1 | < 0.1 | Cn1cc(Nc2nccc(-n3ccc4c(NC(=O)C5CC5(F)F)cccc43)n2)cn1 (centres unmarked) [TDM-180885, 2,2-difluoro-N-(1-(2-((1-methyl-1H-pyrazol-4-yl)amino)pyrimidin-4-yl)-1H-indol-4-yl)cyclopropane-1-carboxamide]
9 | 0.1 to 1 | < 0.1 | Cn1cc(Nc2nccc(-c3ccc(NC(=O)C4CC4(F)F)c4[nH]ncc34)n2)cn1 (centres unmarked) [TDM-180899, 2,2-difluoro-N-(4-(2-((1-methyl-1H-pyrazol-4-yl)amino)pyrimidin-4-yl)-1H-indazol-7-yl)cyclopropane-1-carboxamide]
10 | 1 to 10 | ≥ 10 | CC(=O)N1CCN(Cc2ccc(-c3ccnc(Nc4cnn(C)c4)n3)cc2)CC1 [TDM-180789, 1-(4-(4-(2-((1-methyl-1H-pyrazol-4-yl)amino)pyrimidin-4-yl)benzyl)piperazin-1-yl)ethan-1-one]
11 | 0.1 to 1 | < 0.1 | Cn1cc(Nc2nccc(-n3ccc4c(NC(=O)CC#N)cccc43)n2)cn1 [TDM-180881, 2-cyano-N-(1-(2-((1-methyl-1H-pyrazol-4-yl)amino)pyrimidin-4-yl)-1H-indol-4-yl)acetamide]
12 | 0.1 to 1 | 0.1 to 1 | CCCS(=O)(=O)Nc1ccc(-c2ccnc(Nc3cnn(C)c3)n2)cc1 [TDM-180893, N-(4-(2-((1-methyl-1H-pyrazol-4-yl)amino)pyrimidin-4-yl)phenyl)propane-1-sulfonamide]
13 | ≥ 10 | ≥ 10 | COCC(=O)Nc1cc(-c2ccnc(Nc3cnn(C)c3)n2)ccn1 [TDM-180777, 2-methoxy-N-(4-(2-((1-methyl-1H-pyrazol-4-yl)amino)pyrimidin-4-yl)pyridin-2-yl)acetamide]
14 | ≥ 10 | ≥ 10 | Cn1cc(Nc2nccc(-c3ccnc(NC(=O)CC(F)(F)F)c3)n2)cn1 [TDM-180790, 3,3,3-trifluoro-N-(4-(2-((1-methyl-1H-pyrazol-4-yl)amino)pyrimidin-4-yl)pyridin-2-yl)propanamide]
15 | 0.1 to 1 | 0.1 to 1 | Cn1cc(Nc2nccc(-c3ccc(NC(=O)CC4CC4)c4[nH]ncc34)n2)cn1 [TDM-180917, 2-cyclopropyl-N-(4-(2-((1-methyl-1H-pyrazol-4-yl)amino)pyrimidin-4-yl)-1H-indazol-7-yl)acetamide]
16 | < 0.1 | < 0.1 | Cn1cc(Nc2nccc(-c3ccc(NC(=O)[C@@H]4CC4(F)F)cc3)n2)cn1 [TDM-180934]
17 | ≥ 10 | ≥ 10 | CCS(=O)(=O)Nc1ncc(-c2ccnc(Nc3cnn(C)c3)n2)cn1 [TDM-180919, N-(2-((1-methyl-1H-pyrazol-4-yl)amino)-[4,5′-bipyrimidin]-2′-yl)ethanesulfonamide]
18 | 1 to 10 | 1 to 10 | Cn1cc(Nc2nccc(-c3cnc(NC(=O)C4CC4)nc3)n2)cn1 [TDM-180904, N-(2-((1-methyl-1H-pyrazol-4-yl)amino)-[4,5′-bipyrimidin]-2′-yl)cyclopropanecarboxamide]
19 | 1 to 10 | 1 to 10 | Cn1cc(Nc2nccc(-c3cnc(NC(=O)CC#N)nc3)n2)cn1 [TDM-180902, 2-cyano-N-(2-((1-methyl-1H-pyrazol-4-yl)amino)-[4,5′-bipyrimidin]-2′-yl)acetamide]

— patent publication US20240174648A1, “Small Molecule Compound” (Technoderma Medicines Pte Ltd, priority 2019, published 2024)
